Experimental data published in PMC11945486, “TAS1R2/TAS1R3 Single-Nucleotide Polymorphisms Affect Sweet Taste Receptor Activation by Sweeteners: The SWEET Project” (Nutrients, 2025).
No end group written: not given here.

Target: T1, mTAS1R2-WT/mTAS1R3-WT (Mus musculus, UniProt Q925D8+Q925I4)
T1 construct: expressed in transfected cells; host or cells: HEK293T-Gα16gust44
T1 sequence (Q925I4 20-843): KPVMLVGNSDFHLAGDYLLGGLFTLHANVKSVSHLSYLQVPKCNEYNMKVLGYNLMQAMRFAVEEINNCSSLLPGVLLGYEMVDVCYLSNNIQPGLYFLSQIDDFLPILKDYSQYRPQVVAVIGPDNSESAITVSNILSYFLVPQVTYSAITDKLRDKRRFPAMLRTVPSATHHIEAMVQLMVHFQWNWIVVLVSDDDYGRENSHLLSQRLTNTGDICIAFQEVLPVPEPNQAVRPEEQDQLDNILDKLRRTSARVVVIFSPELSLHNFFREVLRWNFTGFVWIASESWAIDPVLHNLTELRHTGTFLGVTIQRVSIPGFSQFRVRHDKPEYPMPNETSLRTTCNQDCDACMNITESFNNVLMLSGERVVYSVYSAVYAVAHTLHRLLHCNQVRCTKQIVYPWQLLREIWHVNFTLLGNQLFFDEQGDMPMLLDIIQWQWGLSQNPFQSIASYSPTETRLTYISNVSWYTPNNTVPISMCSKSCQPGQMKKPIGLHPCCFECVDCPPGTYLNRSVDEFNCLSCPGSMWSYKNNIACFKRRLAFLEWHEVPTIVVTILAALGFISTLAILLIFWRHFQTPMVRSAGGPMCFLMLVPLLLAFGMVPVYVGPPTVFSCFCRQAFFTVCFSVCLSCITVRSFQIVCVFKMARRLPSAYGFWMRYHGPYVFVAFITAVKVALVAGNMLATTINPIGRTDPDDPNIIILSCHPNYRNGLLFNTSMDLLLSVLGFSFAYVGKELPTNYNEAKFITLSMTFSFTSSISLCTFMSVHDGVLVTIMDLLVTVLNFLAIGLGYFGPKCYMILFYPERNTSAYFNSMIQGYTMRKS
T1 sequence (Q925D8 21-858): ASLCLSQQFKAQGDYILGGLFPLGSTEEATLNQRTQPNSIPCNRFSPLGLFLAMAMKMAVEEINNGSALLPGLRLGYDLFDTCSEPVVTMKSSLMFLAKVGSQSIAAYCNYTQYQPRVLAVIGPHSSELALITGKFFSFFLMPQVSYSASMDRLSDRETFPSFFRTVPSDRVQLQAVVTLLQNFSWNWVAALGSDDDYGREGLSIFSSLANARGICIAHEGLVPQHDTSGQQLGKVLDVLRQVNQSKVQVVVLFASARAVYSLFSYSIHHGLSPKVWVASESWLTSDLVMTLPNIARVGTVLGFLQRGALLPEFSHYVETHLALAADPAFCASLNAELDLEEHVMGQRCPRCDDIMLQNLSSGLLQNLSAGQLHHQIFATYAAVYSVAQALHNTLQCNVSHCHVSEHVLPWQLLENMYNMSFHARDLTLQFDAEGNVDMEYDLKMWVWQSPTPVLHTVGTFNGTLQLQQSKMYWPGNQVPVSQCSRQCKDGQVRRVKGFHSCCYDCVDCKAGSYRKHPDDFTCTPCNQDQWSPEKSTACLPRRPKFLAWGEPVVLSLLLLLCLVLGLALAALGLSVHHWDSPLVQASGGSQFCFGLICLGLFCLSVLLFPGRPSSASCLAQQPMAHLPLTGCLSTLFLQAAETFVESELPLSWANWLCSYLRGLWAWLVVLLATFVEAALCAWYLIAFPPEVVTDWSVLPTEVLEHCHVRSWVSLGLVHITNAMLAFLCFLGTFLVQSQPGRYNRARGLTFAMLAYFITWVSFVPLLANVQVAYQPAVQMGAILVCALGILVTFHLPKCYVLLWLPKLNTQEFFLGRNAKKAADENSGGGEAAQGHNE
Assay: Calcium mobilisation assay, HEK293T-Gα16gust44 cells, mouse sweet taste receptor WT
Format: cell-based
Conditions: for EC50 / Max ΔF/F0: mTAS1R2-WT + mTAS1R3-WT, "-": no activation; for Max ΔF/F0: maximal signal amplitude; for activation of the mouse sweet taste receptor: result in words
Description: The HEK293T cells were kindly provided by Jay P. Slack (Givaudan Flavors Corporation; Cincinnati, OH, USA). HEK293T cells stably transfected with Gα16gust44 [43, 67] were seeded in poly-D-lysine-coated clear-bottom black 96-well plates (0.35 × 10^5 cells/well) in high-glucose DMEM supplemented with 2 mM GlutaMAX, 10% dialysed foetal bovine serum with penicillin/streptomycin and G418 (400 μg/mL) at 37 °C and 6.3% CO2 in a humidified atmosphere as previously reported. […] As a negative control, HEK293T cells were mock-transfected with the empty expression vector. After a further 24 h of incubation, the HEK293T cells were washed with C1 buffer (130 mM NaCl, 5 mM KCl, 10 mM HEPES pH 7.4 and 2 mM CaCl2). The 96-well plates containing the cells were then stimulated with sweet-tasting compounds. […] Different concentration ranges were tested depending on the sweet compound injected. The Ca^2+ changes were expressed as fractional changes in fluorescent light intensity: ΔF/F = (F − F0)/F0, where F was the fluorescent light intensity at each point, and F0 was the value of emitted fluorescent light prior to stimulus application. To calculate dose–response relationships, the changes in fluorescence upon stimulus application were averaged, mock-subtracted and baseline-corrected. The dose–response data obtained were adjusted using a 4-parameter logistic equation. The half-maximal effective concentrations (EC50 values) and maximal signal amplitudes were calculated using SigmaPlot software (version 15.0) (Systat Software; San Jose, CA, USA).
HEK293T-Gα16gust44 cells were transiently cotransfected with pcDNA6-MAX-mTAS1R2-FLAG, pcDNA4-MAX-mTAS1R3-WT-FLAG or pcDNA4-MAX-mTAS1R3-I60T-FLAG, and pCMV-GCaMP5G as previously described in detail. After 24 h, the cells were washed with C1 buffer and stimulated with a logarithmically increasing range of sweetener concentrations. Calcium responses during automated application were monitored using a FlexStation®3 Multi-Mode microplate reader. The dose–response curves, EC50 values and maximal signal amplitudes were calculated as previously described.
For in vitro calcium mobilisation assay performed on hTAS1R2-SNPs, hTAS1R3-SNPs and mTAS1R3-I60T, 6 to 7 concentrations were tested for each sweet compound, plus buffer alone. All concentration–receptor combinations were measured in duplicate, and each experiment was repeated at least 4 times (8 wells/concentration). Results were expressed for each concentration as ΔF/F mean ± SEM and represented as dose–response curves.

Row | EC50 [µM] | Max ΔF/F0 | activation of the mouse sweet taste receptor | Compound
1 | 439 ± 10 | 1.63 ± 0.02 | – | CC1=CC(=O)NS(=O)(=O)O1 [Acesulfame K, acesulfame K]
2 | – | – | not activated | COc1ccc(CCC(=O)c2c(O)cc(O[C@@H]3O[C@H](CO)[C@@H](O)[C@H](O)[C@H]3O[C@@H]3O[C@@H](C)[C@H](O)[C@@H](O)[C@H]3O)cc2O)cc1O [NHDC, neohesperidin dihydrochalcone]
3 | – | – | not activated | COC(=O)[C@H](Cc1ccccc1)NC(=O)[C@H](CC(=O)O)NCCC(C)(C)C [Neotame]
4 | – | – | not activated | C=C(C)[C@@H]1CC=C(/C=N/O)CC1 [Perillartine, perillartine]
5 | 44 ± 4 | 1.41 ± 0.05 | – | C=C1C[C@@]23CC[C@H]4[C@@](C)(CCC[C@@]4(C)C(=O)O[C@@H]4O[C@H](CO)[C@@H](O)[C@H](O[C@@H]5O[C@H](CO)[C@@H](O)[C@H](O)[C@H]5O)[C@H]4O[C@@H]4O[C@H](CO)[C@@H](O)[C@H](O)[C@H]4O)[C@@H]2CC[C@]1(O[C@@H]1O[C@H](CO)[C@@H](O)[C@H](O[C@@H]2O[C@H](CO)[C@@H](O)[C@H](O)[C@H]2O)[C@H]1O[C@@H]1O[C@H](CO)[C@@H](O)[C@H](O)[C@H]1O)C3 [Rebaudioside M, rebaudioside M]
6 | 778 ± 22 | 2.03 ± 0.02 | – | OC[C@H]1O[C@H](O[C@]2(CCl)O[C@H](CCl)[C@@H](O)[C@@H]2O)[C@H](O)[C@@H](O)[C@H]1Cl [Sucralose]
7 | – | – | not activated | brazzein (QDKCKKVYENYPVSKCQLANQCNYDCKLDKHARSGECFYDEKRNLQCICDYCEY; ends and bridges not checked; cysteine pairing not given here; UniProt P56552 1-54, looked up) [sweet-tasting protein obtained by recombinant production using the yeast Pichia pastoris]
8 | – | – | not activated | thaumatin

Row | Compound | EC50 [µM] | Max ΔF/F0 | activation of the mouse sweet taste receptor
9 | O=S(=O)(O)NC1CCCCC1 [Cyclamate, cyclamate] | – | – | not activated
10 | C[C@H](CC[C@@H](O[C@@H]1O[C@H](CO[C@@H]2O[C@H](CO)[C@@H](O)[C@H](O)[C@H]2O)[C@@H](O)[C@H](O)[C@H]1O[C@@H]1O[C@H](CO)[C@@H](O)[C@H](O)[C@H]1O)C(C)(C)O)[C@H]1CC[C@@]2(C)[C@@H]3CC=C4[C@@H](CC[C@H](O[C@@H]5O[C@H](CO[C@@H]6O[C@H](CO)[C@@H](O)[C@H](O)[C@H]6O)[C@@H](O)[C@H](O)[C@H]5O)C4(C)C)[C@]3(C)[C@H](O)C[C@]12C [Mogroside V, mogroside V] | 133 ± 6 | 0.84 ± 0.02 | –
